Experimental data: the NIST ThermoML archive (doi:10.1021/je050052+)
± gives the expanded uncertainty stated by the source.

Experiment: excess molar enthalpy (molar enthalpy of mixing); xn = mol fraction of the nth substance listed
Settings: Liquid, Flow calorimetry

COC(=O)OC [dimethyl carbonate] + CCO
Settings	excess molar enthalpy [kcal/mol]
313.15 K, 1000 kPa, x1 = 0.5513	0.4373 ± 0.00359
313.15 K, 1000 kPa, x1 = 0.6002	0.4211 ± 0.00335
313.15 K, 1000 kPa, x1 = 0.6504	0.3971 ± 0.00335
313.15 K, 1000 kPa, x1 = 0.6988	0.3677 ± 0.00311
313.15 K, 1000 kPa, x1 = 0.7511	0.3259 ± 0.00263
313.15 K, 1000 kPa, x1 = 0.7986	0.2824 ± 0.00237
313.15 K, 1000 kPa, x1 = 0.8496	0.2284 ± 0.00196
313.15 K, 1000 kPa, x1 = 0.9011	0.1552 ± 0.00139
313.15 K, 1000 kPa, x1 = 0.9504	0.0781 ± 0.000789
313.15 K, 10000 kPa, x1 = 0.0517	0.09719 ± 0.000932
313.15 K, 10000 kPa, x1 = 0.1019	0.1904 ± 0.00165
313.15 K, 10000 kPa, x1 = 0.1505	0.2626 ± 0.00222
313.15 K, 10000 kPa, x1 = 0.2019	0.3232 ± 0.00263
313.15 K, 10000 kPa, x1 = 0.2517	0.3678 ± 0.00311
313.15 K, 10000 kPa, x1 = 0.2998	0.4004 ± 0.00335
313.15 K, 10000 kPa, x1 = 0.3503	0.4236 ± 0.00359
313.15 K, 10000 kPa, x1 = 0.3992	0.4379 ± 0.00359
313.15 K, 10000 kPa, x1 = 0.45	0.4441 ± 0.00359
313.15 K, 10000 kPa, x1 = 0.4991	0.4423 ± 0.00359
313.15 K, 10000 kPa, x1 = 0.5498	0.4331 ± 0.00359
313.15 K, 10000 kPa, x1 = 0.5987	0.4174 ± 0.00335
313.15 K, 10000 kPa, x1 = 0.6491	0.394 ± 0.00335
313.15 K, 10000 kPa, x1 = 0.7005	0.3625 ± 0.00311
313.15 K, 10000 kPa, x1 = 0.75	0.3257 ± 0.00263
313.15 K, 10000 kPa, x1 = 0.8004	0.279 ± 0.00234
313.15 K, 10000 kPa, x1 = 0.8489	0.2261 ± 0.00194
313.15 K, 10000 kPa, x1 = 0.9006	0.1567 ± 0.00141
313.15 K, 10000 kPa, x1 = 0.9501	0.0768 ± 0.000789
328.15 K, 1000 kPa, x1 = 0.05	0.1153 ± 0.00108
328.15 K, 1000 kPa, x1 = 0.1	0.2147 ± 0.00184
328.15 K, 1000 kPa, x1 = 0.15	0.2918 ± 0.00239
328.15 K, 1000 kPa, x1 = 0.2	0.3565 ± 0.00287
328.15 K, 1000 kPa, x1 = 0.25	0.4091 ± 0.00335
328.15 K, 1000 kPa, x1 = 0.3	0.4447 ± 0.00359
328.15 K, 1000 kPa, x1 = 0.35	0.4711 ± 0.00382
328.15 K, 1000 kPa, x1 = 0.4	0.4883 ± 0.00406
328.15 K, 1000 kPa, x1 = 0.45	0.4949 ± 0.00406
328.15 K, 1000 kPa, x1 = 0.5	0.4942 ± 0.00406
328.15 K, 1000 kPa, x1 = 0.55	0.4854 ± 0.00406
328.15 K, 1000 kPa, x1 = 0.6	0.47 ± 0.00382
328.15 K, 1000 kPa, x1 = 0.65	0.4467 ± 0.00359
328.15 K, 1000 kPa, x1 = 0.7	0.4113 ± 0.00335
328.15 K, 1000 kPa, x1 = 0.75	0.3653 ± 0.00311
328.15 K, 1000 kPa, x1 = 0.8	0.3136 ± 0.00263
328.15 K, 1000 kPa, x1 = 0.85	0.2508 ± 0.00213
328.15 K, 1000 kPa, x1 = 0.9	0.1742 ± 0.00153
328.15 K, 1000 kPa, x1 = 0.95	0.08759 ± 0.00086
